The numbers were not newly measured in patent publication US5519028A, “Antiviral preparations” (priority 1992, dated 1996), which cites them from elsewhere.

In this series the test system is viruses of vaccine. The settings on record: intracutaneously 200-600 μg or 2.5-500 mg/day; cited from earlier work.

As for `CCc1ccc2c3[nH]c4ccccc4c3cc[n+]2c1` [flavopereirine], the “appearance and development of vital papules” value is “prevents the appearance and development of vital papules”.
